Measured values: PubChem BioAssay (NCI)
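The compound was tested at five concentrations on cells cultured in 96-well plates, with a 48-hour exposure period. At the GI50, growth is halved. TGI denotes the concentration required for complete inhibition of growth.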

Experiments:
Test in all cases: growth of human tumour cells (NCI), 48 h
ACHN renal = system: ACHN renal
COLO 205 colon = system: COLO 205 colon
HOP-62 NSCLC = system: HOP-62 NSCLC
KM12 colon = system: KM12 colon
SK-MEL-5 melanoma = system: SK-MEL-5 melanoma
SNB-75 CNS = system: SNB-75 CNS
SW-620 colon = system: SW-620 colon
U251 CNS = system: U251 CNS
OVCAR-4 ovarian = system: OVCAR-4 ovarian
OVCAR-8 ovarian = system: OVCAR-8 ovarian

Row | Structure (SMILES) | GI50 (ACHN renal) [µM] | TGI (ACHN renal) [µM] | GI50 (COLO 205 colon) [µM] | TGI (COLO 205 colon) [µM] | GI50 (HOP-62 NSCLC) [µM] | TGI (HOP-62 NSCLC) [µM] | GI50 (KM12 colon) [µM] | TGI (KM12 colon) [µM] | GI50 (SK-MEL-5 melanoma) [µM] | TGI (SK-MEL-5 melanoma) [µM] | GI50 (SNB-75 CNS) [µM] | TGI (SNB-75 CNS) [µM] | GI50 (SW-620 colon) [µM] | TGI (SW-620 colon) [µM] | GI50 (U251 CNS) [µM] | TGI (U251 CNS) [µM] | TGI (OVCAR-4 ovarian) [µM] | TGI (OVCAR-8 ovarian) [µM] | GI50 (OVCAR-4 ovarian) [µM] | GI50 (OVCAR-8 ovarian) [µM]
1 | C/C(=N\O)c1cccc(Nc2cc(-n3ccnc3)c3ccccc3n2)c1 | 7.31 | 19.4 | 13 | 29.1 | 16.6 | 31.3 | 10.5 | 31.8 | 13.9 | 27.2 | 11.4 | 26.8 | 19.6 | 42.1 | 12.4 | 28.7 |  |  |  | 
2 | Cc1ccc(NC(=O)C(=O)C(C(=O)/C=C/c2ccccc2)C2OC(=O)c3ccccc32)c(C)c1 (stereo not drawn) |  | > 100 |  | > 100 |  | > 100 |  | > 100 |  | > 100 |  | > 100 |  | > 100 |  | > 100 | > 100 |  |  | 
3 | Cn1ccnc1Oc1ccc(Cl)cc1 |  | 25.4 |  | 25.7 |  | 65.6 |  |  |  | 27.1 |  | 51.8 |  | 26.4 |  | 46.7 | 19.8 | 22.4 |  | 
4 | CC(CO)(Nc1ccc([N+](=O)[O-])cc1[N+](=O)[O-])C(=O)O (stereo not drawn) |  | 32.7 |  | 32.8 |  | > 100 |  | > 100 |  | 44.5 |  |  |  | 33.4 |  | 49.2 |  | > 100 |  | 
5 | CC1=NN(c2ccccc2)C(=O)/C1=C\c1ccc([N+](=O)[O-])cc1 |  | > 100 |  | 33 |  |  |  | 64.3 |  | 54.5 |  | > 100 |  | 93.2 |  | > 100 | 42.2 | > 100 |  | 
6 | c1ccc2c(c1)CCc1c-2n[nH]c1-c1[nH]nc2c1CCc1ccccc1-2 |  | > 100 |  | > 100 |  | > 100 |  | > 100 |  | > 100 |  | > 100 |  | > 100 |  | > 100 |  | > 100 |  | 
7 | CCC(=O)Nc1ccc(N2C(=O)/C(=C/c3ccc(OC)cc3)N=C2c2ccccc2)cc1 | 5.62 | 16 | 9.23 | > 50 |  |  | 3.65 | > 50 | 7.16 | > 50 | 6.86 | > 50 | 1.38 | > 50 | 1.66 | 8.87 | > 50 | > 50 | 16.2 | 7.38
8 | Cc1cccc(NC(=O)/C(=N\N)C(c2cnc3ccc([N+](=O)[O-])cc3n2)[N+](=O)[O-])c1C (stereo not drawn) |  | > 100 |  | > 100 |  | > 100 |  | > 100 |  | > 100 |  | > 100 |  | > 100 |  |  | > 100 | > 100 |  | 
9 | CC(=O)/C(=C\c1ccccc1O)C(=O)Nc1ccccc1C |  | 40.9 |  |  |  | 44.7 |  | 41.5 |  | 27.9 |  |  |  | 53.7 |  | 24.7 | > 100 | > 100 |  | 
10 | Cc1ccc(C2C3Cc4ccccc4C3=NN2c2ccc(S(=O)(=O)/N=c3\scc(-c4ccccc4)n3-c3ccccc3)cc2)cc1 (stereo not drawn) | 21.6 | 50.3 | 23.3 | 52.1 | 40.2 | > 100 | 20.2 | 65.2 | 13.2 | 26 |  |  | 15.7 | 31.6 | 18.7 | 37.8 |  | 58.5 |  | 21.9
11 | C[n+]1c2ccccc2nc2c(N)cc(N)cc21 | 45.6 | > 100 | 3.49 | 19.4 | 3.48 | 38.1 | 13.7 | > 100 | 2.56 | 7.09 | 5.2 | 18.7 | 10.7 | > 100 | 2.5 | > 100 | > 100 |  | 5.87 | 
12 | Cc1ccncc1C(N)=O | > 100 | > 100 | > 100 | > 100 | > 100 | > 100 | > 100 | > 100 | > 100 | > 100 | > 100 | > 100 | > 100 | > 100 | > 100 | > 100 |  | > 100 |  | > 100
13 | COc1ccc(-c2[nH]c3ccccc3c2CCNS(=O)(=O)c2ccc(C)cc2)cc1 |  | > 10 |  | 4.03 |  | > 10 |  | > 10 |  | > 10 |  | > 10 |  | > 10 |  | > 10 |  | > 10 |  | 
14 | COc1cc2ncc3c(nc4sccn43)c2cc1OC | 10.2 | 26 | 38.2 | > 100 | 18.7 | 51.4 | 8.38 | > 100 | 48.4 | > 100 |  |  | 41.9 | > 100 | 16.5 | 39.3 | 70.4 | > 100 | 32 | 38.1
15 | CCCC(S(=O)(=O)c1ccccc1)S(=O)(=O)c1ccccc1 |  | > 100 |  |  |  | > 100 |  | > 100 |  | > 100 |  | > 100 |  | > 100 |  | > 100 | > 100 | > 100 |  | 
16 | N#CNc1nc(N)c(-c2ccc(Cl)cc2)c(C(=O)Nc2nccs2)n1 |  | > 100 |  |  |  | > 100 |  | > 100 |  | > 100 |  | > 100 |  | > 100 |  | > 100 | > 100 | > 100 |  | 
17 | Cc1cc2c(c(C(N)=O)c1C)-c1cc(Cl)cc(Cl)c1C2=O |  | > 100 |  | > 100 |  | > 100 |  | > 100 |  |  |  | 45.6 |  |  |  | > 100 | > 100 | > 100 |  | 
18 | CC(C)(C)c1cc2nc(c1)C(C(F)(F)F)(C(F)(F)F)OB(Br)OC2(C(F)(F)F)C(F)(F)F |  |  |  | 0.364 |  | 3.14 |  | 11.3 |  |  |  | 13 |  | 15.8 |  | 1.37 |  | 0.427 |  | 
19 | C[CH2][Hg][S]c1ccccc1C(=O)O | 1.49 | 2.83 | 1.24 | 2.86 | 2.58 | 12.3 | 3.82 | 13.3 |  |  | 2.98 | 10.8 | 0.838 | 2.24 | 1.56 | 3.03 | 7 |  | 2.01 | 
